The values below come from patent US20240118281A1, “ANTICANCER COMPOUNDS AND USES THEREOF” (University of Florida Research Foundation, Incorporated, priority 2021, published 2024).

The subject of one assay is GRP78. The assay can be described thus: Endoplasmic reticulum stress (ERS) induction, immunoblot. The class given is cell-based. Conditions: MDA-MB-468 cells, 24 h. The text has this: The BT20, BT474, BT549, MCF7, MDA-MB-231, MDA-MB-436, MDA-MB-468, HCC1143, HCC1500, HCC1569, HCC1937, HCC1954, Hs578t, and T47D cells lines were purchased from American Type Culture Collection (ATCC) (Manassas, VA). The HCI-001 cell line was derived from an ER-/PR-/HER2- patient-derived xenograft originally isolated from a patient as described previously (DeRose Y S, et al. Nat Med 2011; 17: 1514-1520). The HCI-001/LVM2 model was derived from the HCI-001 cell line by performing two rounds of selection for liver metastasis, as described previously (Wang M, et al. Cell Death Discovery 2019; 5: 153). Cell lines were grown in Dulbecco's Modified Eagle's Medium (GE Healthcare Life Sciences, Logan, UT) containing 10% fetal bovine serum (10% FBS—DMEM) in a humidified incubator with 5% CO2 at 37° C. Cell lysates were prepared as described previously (Law B K, et al. Mol Cell Biol. 2002; 22: 8184-8198). Immunoblot analysis was performed utilizing the following antibodies purchased from Cell Signaling Technology (Beverly, MA) [Akt, #4691; P-Akt[T308], #13038; ATF4, #11815; CHOP, #2895; Cleaved Caspase 8, #9496; DR4, #42533; DR5, #8074; EGFR, #4267; GRP78, #3177; HER3, #4754; PARP, #9532; PDIA1, #3501; XBP1s, #12782], from Santa Cruz Biotechnology (Santa Cruz, CA) [Actin, sc-47778; AGR2/3, sc-376653; AGR3, sc-390940; ERO1-a, sc-100805; and ERp44, sc-393687], or from Rockland Immunochemicals, Inc. (Limerick, PA), Streptavidin-Alkaline Phosphatase conjugated (SA-AP), S000-05.
To assess protein disulfide bond-mediated oligomerization, cells were treated with DDAs for 24 h in 10% FBS-DMEM. Cells were subsequently scraped directly into the media and pelleted by centrifugation. Cells were extracted directly into boiling 2×-SDS-Sample Buffer containing 100 mM NEM and boiled for 10 min. Samples were sonicated, followed by centrifugation for 20 min at room temperature. Samples were subsequently analyzed by SDS-PAGE and immunoblot.
For orientation: A western blot detects proteins with antibodies after separation by electrophoresis.

For another assay, the target named is T1, AGR2 (Homo sapiens, UniProt O95994).
T1 sequence (O95994 21-175): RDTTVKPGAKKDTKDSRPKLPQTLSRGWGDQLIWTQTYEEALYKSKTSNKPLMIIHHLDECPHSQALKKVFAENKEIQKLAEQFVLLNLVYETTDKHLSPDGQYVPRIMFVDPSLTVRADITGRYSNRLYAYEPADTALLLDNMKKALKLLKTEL
The assay can be described thus: DDA-AGR2 binding assay, Streptavidin-Alkaline Phosphatase blot. Also on record: made in house; host or cells: E. coli BL21(DE3), pET-45b(+). How it is done: Competent BL21(DE3) cells were transformed with either the AGR2/pET-45b(+) or AGR2 C81S/pET-45b(+) vectors. Protein expression was induced by the addition of 50 µM Isopropyl β-D-1-thiogalactopyranoside (Fisher Scientific, Fair Lawn, NJ) to bacterial cell cultures for 2.5 hours and shaking at 37° C. Bacterial cells were subsequently pelleted and dissolved in Mouse Tonicity Phosphate Buffered Saline (MTPBS) containing 1% Triton X-100 and sonicated for 20 seconds on ice, followed by centrifugation for 10 min at 4° C. to pellet cell debris. The supernatant was transferred to a new tube, followed by the addition of TALON Resin (Clontech, Mountain View, CA) and mixing on a Nutator for 30 min at 4° C. The TALON Resin was pelleted by centrifugation and washed twice with MTPBS and twice with MTPBS containing 30 mM Imidazole. Protein bound to the TALON Resin was eluted with 400 mM Imidazole and precipitated with 60% saturated ammonium sulfate. The precipitated protein was pelleted by centrifugation, dissolved in MTPBS containing 1 mM DTT and 1 mM EDTA, and subsequently dialyzed against a solution of MTPBS containing 10 μM DTT and 30% Glycerol.
Purified His6-AGR2 or His6-AGR2 C81S, as prepared above, or His6-AGR2 (PRO-580) or His6-AGR3 (PRO-242) obtained from ProSpec (New Brunswick NJ) were incubated with or without varying concentrations of the unlabeled DDA competitors, tcyDTDO or dMtcyDTDO, and 30 μM Biotin-GlyPyrDTDO or Biotin-PyrDTDO in buffer (20 mM HEPES (pH 7.4), 1 mM EDTA, 1 mM EGTA, 5% Glycerol, 1 nM Microcystin, 1 mM Na3VO4, and 40 mM Na2H2P2O7) containing 1% Triton-X 100 for 30 min at 37° C. […] Therefore, the two probes were used interchangeably. Reactions were stopped by boiling the samples in 2×-SDS-Sample Buffer containing 100 mM NEM for 10 min. Biotin-DDA labeling of protein was verified by blotting with Streptavidin-Alkaline Phosphatase (Rockland Immunochemicals, Inc., Limerick, PA). ERp44 (PRO-547) and PDIA1 (ENZ-262) were obtained from ProSpec and used in experiments examining the binding of these proteins to Biotin-PyrDTDO.

The test system of the next assay is DR4. The assay can be described thus: Surface biotinylation. In kind it is cell-based. The settings on record: MDA-MB-468 cells, 2.5 μM, 24 h, amine- or thiol-reactive probes, FIG. 6D. The method, then: (§1) Cell surface proteins were labeled by incubation of cells with 1.6 mM Sulfo-NHS-SS-Biotin (Thermo Fisher Scientific, Waltham, MA) or 1.6 mM Biotin-dPEG3-Maleimide (MilliporeSigma, St. Louis, MO) in Phosphate-Buffered Saline (PBS), pH 8.0 for 30 minutes at 4° C. The cells were subsequently washed three times with PBS, and proteins were extracted in a buffer containing 1% Triton X-100 extraction buffer in the absence of reducing agents. Cell extracts were then incubated with Streptavidin-agarose beads (Thermo Fisher Scientific, Waltham, MA) for 2.5 h at 4° C. Following centrifugation, the supernatant containing non-biotinylated proteins (flow-through) was retained and boiled in 2×-SDS-Sample Buffer containing 1% 2-mercaptoethanol. Streptavidin-agarose beads bound to biotinylated proteins were washed four times with 0.1% Triton X-100 extraction buffer, followed by boiling in 2×-SDS-Sample Buffer containing 1% 2-mercaptoethanol. Samples were then analyzed by immunoblot or blotting with Streptavidin-Alkaline Phosphatase.

In a further assay the test system is DR5. Put plainly: Surface biotinylation. The settings on record: MDA-MB-468 cells, 2.5 μM, 24 h, amine- or thiol-reactive probes, FIG. 6D. The class given is cell-based. The method, then: as §1
The subject of assay [1] is HER3, DR5, CHOP and XBP1s. The assay can be described thus: Reducing immunoblot of DDA responses. Conditions: MDA-MB-468 cells. In kind it is cell-based. The text has this:
The BT20, BT474, BT549, MCF7, MDA-MB-231, MDA-MB-436, MDA-MB-468, HCC1143, HCC1500, HCC1569, HCC1937, HCC1954, Hs578t, and T47D cells lines were purchased from American Type Culture Collection (ATCC) (Manassas, VA). The HCI-001 cell line was derived from an ER-/PR-/HER2- patient-derived xenograft originally isolated from a patient as described previously (DeRose Y S, et al. Nat Med 2011; 17: 1514-1520). The HCI-001/LVM2 model was derived from the HCI-001 cell line by performing two rounds of selection for liver metastasis, as described previously (Wang M, et al. Cell Death Discovery 2019; 5: 153). Cell lines were grown in Dulbecco's Modified Eagle's Medium (GE Healthcare Life Sciences, Logan, UT) containing 10% fetal bovine serum (10% FBS—DMEM) in a humidified incubator with 5% CO2 at 37° C. Cell lysates were prepared as described previously (Law B K, et al. Mol Cell Biol. 2002; 22: 8184-8198). […]

The structures appear in SMILES notation.

`CO[C@H]1C[C@@H]2CS(=O)(=O)SC[C@H]2C[C@@H]1OC` [dMtcyDTDO, dimethoxy-tcyDTDO]: the “Concentration at which induction of ERS (GRP78 elevation) was detected” value in the assay on GRP78 (FIG. 1E right) worked out at 625 nM. Moreover, in the assay with GRP78 (compared with tcyDTDO, FIG. 1E left), the “ERS at the same concentration” value was “greater ERS”. Moreover, at AGR2 (FIG. 2E, 9E-F), the “Ability to block Biotin-GlyPyrDTDO binding to AGR2, compared with tcyDTDO” value is listed as “more effective competitor”. Further, the “Competition with Biotin-GlyPyrDTDO binding to AGR2” value at AGR2 (molar excess, pre-incubation with 600 μM, FIG. 2D) was “partially prevented Biotin-GlyPyrDTDO binding”. In addition, in the assay on DR4, the “Cell surface levels of DR4” value is “increased cell surface levels of DR4 and DR5”. In addition, the “Cell surface levels of DR5” value in the assay on DR5 was “increased cell surface levels of DR4 and DR5”. Also, in assay [1] (24 h, reducing conditions, FIG. 9B), the “Potency in induction of HER3 downregulation, DR5 upregulation and ERS (CHOP, XBP1s)” value is “more potent than tcyDTDO”. Also, the “Onset of these responses (time-course)” value in assay [1] (FIG. 9C) is reported as “as early as four hours after treatment”.
